Assay results: ChEMBL document CHEMBL1125650, “Relationships between the structure of taxol analogues and their antimitotic activity” (J Med Chem, 1991)
Converted amounts (≈) assume the structure as drawn.

Legend:
[1] = tested on: P388; test: The concentration required to 50% inhibition of the P388 leukemic cell proliferation; type: functional, cell-based; settings: Mus musculus
[2] = Cytotoxicity was measured as ratio of its IC50 value to that of compound 13a; type: functional
[3] = species: Sus scrofa; test: Ratio of the concentration leading to a 50% inhibition of the rate of pig brain microtubule disassembly to that of taxol (0.4 uM) was determined; type: functional
[4] = Ratio of the concentration of compound leading to a 50% inhibition of the rate of pig brain microtubule disassembly to that of compound 13a was determined; type: functional

## CC(=O)O[C@@]12CO[C@@H]1C[C@H](O)[C@@]1(C)C(=O)[C@H](O)C3=C(C)[C@@H](OC(=O)C(O)C(NC(=O)c4ccc(S(=O)(=O)O)cc4)c4ccccc4)C[C@@](O)([C@@H](OC(=O)c4ccccc4)[C@H]21)C3(C)C (stereo partly specified)
[1]
  IC50: > 4 µg/mL
[2]
  Ratio: >31
[3]
  Ratio: 5.5
[4]
  Ratio: 11

## CC(=O)O[C@@]12CO[C@@H]1C[C@H](OC(=O)CN)[C@@]1(C)C(=O)[C@H](OC(=O)CN)C3=C(C)[C@@H](OC(=O)C(O)C(NC(=O)OC(C)(C)C)c4ccccc4)C[C@@](O)([C@@H](OC(=O)c4ccccc4)[C@H]21)C3(C)C (stereo partly specified)
[1]
  IC50: 0.19 µg/mL (≈ 0.206 µM)
[2]
  Ratio: 1.5
[3]
  Ratio: 1.2
[4]
  Ratio: 1.4

## CC(=O)O[C@H]1C(=O)[C@@]2(C)[C@H]([C@H](OC(=O)c3ccccc3)[C@]3(O)C[C@H](OC(=O)[C@H](O)[C@@H](NC(=O)OC(C)(C)C)c4ccccc4)C(C)=C1C3(C)C)[C@]1(OC(C)=O)CO[C@@H]1C[C@@H]2O
[1]
  IC50: 0.17 µg/mL (≈ 0.2 µM)
[2]
  Ratio: 1.3
[3]
  Ratio: 0.5
[4]
  Ratio: 1

## CC(=O)O[C@H]1C(=O)[C@@]2(C)[C@H]([C@H](OC(=O)c3ccccc3)[C@]3(O)C[C@H](OC(=O)[C@@H](O)[C@H](NC(=O)c4ccccc4)c4ccccc4)C(C)=C1C3(C)C)[C@]1(OC(C)=O)CO[C@@H]1C[C@@H]2O
[1]
  IC50: 7 µg/mL (≈ 8.2 µM)
[2]
  Ratio: 54
[3]
  Ratio: 4.5
[4]
  Ratio: 9
